Activity calls are given as the source filed them. The calls are words filed in the database; no cut-off is given here.
Columns and labels:
[1] = tested on: Escherichia coli; test: Induction of sensitization to irradiation in Escherichia coli AB1157 under hypoxic condition assessed as reduction in colony formation at 1 mM measured after irradiation; assay type: functional, organism-based
[2] = tested on: Escherichia coli; test: Antimicrobial activity against Escherichia coli AB1157 assessed as reduction in colony formation at 1 mM; assay type: organism-based; details: in vivo, 1000 µM
[3] = tested on: Escherichia coli; test: Induction of sensitization to irradiation in Escherichia coli AB1157 under oxic condition assessed as reduction in colony formation at 1 mM measured after irradiation; assay type: organism-based; details: in vivo, 1000 µM

## COCC(O)Cn1ccnc1[N+](=O)[O-] (configuration not stated)
[1]
  Activity: Active

## O=[N+]([O-])c1cnc2n1CCO2
[1]
  Activity: Active
[2]
  Activity: Non-toxic
[3]
  Activity: Toxic

## O=[N+]([O-])c1ncn(CCO)c1Cl
[1]
  Activity: Active
[2]
  Activity: Non-toxic
[3]
  Activity: Toxic
